Data reported in PubChem BioAssay AID248 (DTP/NCI, 2004).
“And” between values parts separate entries of the source, which are not always exact repeats. Identical values can stand only once. Inconclusive results and toxic doses are left out.

Tested on: L1210 leukemia ip in BDF1 mice, survival T/C
Experiment: NCI In Vivo Anticancer Drug Screen. Data for tumor model L1210 Leukemia (intraperitoneal) in B6D2F1 (BDF1) mice
Settings: endpoint: mean survival time, higher = longer survival
How it was run: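 Tumor was transplanted into mice, which were then dosed with test compound or vehicle alone. Survival was recorded for each group, and the treated figure was expressed relative to the control figure.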

[1] = dose: 50.0 mg/kg/injection, schedule: Q01DX009 (ip), vehicle: saline
[2] = dose: 50.0 mg/kg/injection, schedule: Q04DX003 (ip), vehicle: saline with Tween-80
[3] = dose: 100.0 mg/kg/injection, schedule: Q04DX003 (ip), vehicle: saline with Tween-80
[4] = dose: 10.0 mg/kg/injection, schedule: Q04DX003 (ip), vehicle: saline
[5] = dose: 20.0 mg/kg/injection, schedule: Q04DX003 (ip), vehicle: saline
[6] = dose: 40.0 mg/kg/injection, schedule: Q04DX003 (ip), vehicle: saline
[7] = dose: 80.0 mg/kg/injection, schedule: Q04DX003 (ip), vehicle: saline
[8] = dose: 200.0 mg/kg/injection, schedule: Q04DX003 (ip), vehicle: saline with Tween-80
[9] = dose: 400.0 mg/kg/injection, schedule: Q04DX003 (ip), vehicle: saline with Tween-80

CC1(C)C2CCC(OC(=O)c3ccc([N+](=O)[O-])cc3)C1C2 (configuration not stated)
T/C (dose: 50.0 mg/kg/injection, schedule: Q01DX001 (ip), vehicle: carboxymethylcellulose (CMC)): 102 % of control | T/C (dose: 100.0 mg/kg/injection, schedule: Q01DX001 (ip), vehicle: carboxymethylcellulose (CMC)): 102 % of control | T/C (dose: 200.0 mg/kg/injection, schedule: Q01DX001 (ip), vehicle: carboxymethylcellulose (CMC)): 93 % of control | T/C (dose: 400.0 mg/kg/injection, schedule: Q01DX001 (ip), vehicle: carboxymethylcellulose (CMC)): 87 % of control

c1c[nH]cn1
T/C [1]: 93 % of control | T/C (dose: 100.0 mg/kg/injection, schedule: Q01DX009 (ip), vehicle: saline): 101 % of control and 90 % of control | T/C (dose: 100.0 mg/kg/injection, schedule: Q04DX003 (ip), vehicle: saline): 97 % of control | T/C (dose: 200.0 mg/kg/injection, schedule: Q01DX009 (ip), vehicle: saline): 96 % of control and 90 % of control | T/C (dose: 200.0 mg/kg/injection, schedule: Q04DX003 (ip), vehicle: saline): 97 % of control | T/C (dose: 400.0 mg/kg/injection, schedule: Q01DX009 (ip), vehicle: saline): 103 % of control | T/C (dose: 400.0 mg/kg/injection, schedule: Q04DX003 (ip), vehicle: saline): 94 % of control

CCCCC1(CC)C(=O)NC(=S)NC1=O
T/C (dose: 100.0 mg/kg/injection, schedule: Q01DX001 (ip), vehicle: saline): 114 % of control | T/C (dose: 200.0 mg/kg/injection, schedule: Q01DX001 (ip), vehicle: saline): 104 % of control

c1cc2cnc3cccc4cnc(c1)c2c43
T/C (dose: 100.0 mg/kg/injection, schedule: Q04DX003 (ip), vehicle: saline sonified): 105 % of control | T/C (dose: 200.0 mg/kg/injection, schedule: Q04DX003 (ip), vehicle: saline sonified): 95 % of control | T/C (dose: 400.0 mg/kg/injection, schedule: Q04DX003 (ip), vehicle: saline sonified): 97 % of control

OCCNC(=S)SCc1ccccc1
T/C (dose: 100.0 mg/kg/injection, schedule: Q01DX009 (sc), vehicle: olive oil, sesame oil, peanut oil): 102 % of control | T/C (dose: 100.0 mg/kg/injection, schedule: Q04DX003 (sc), vehicle: olive oil, sesame oil, peanut oil): 96 % of control | T/C (dose: 200.0 mg/kg/injection, schedule: Q01DX009 (sc), vehicle: olive oil, sesame oil, peanut oil): 120 % of control | T/C (dose: 200.0 mg/kg/injection, schedule: Q04DX003 (sc), vehicle: olive oil, sesame oil, peanut oil): 98 % of control | T/C (dose: 400.0 mg/kg/injection, schedule: Q04DX003 (sc), vehicle: olive oil, sesame oil, peanut oil): 105 % of control

COc1cc2c(cc1OC)C13CCN4CC5=CCOC6CC(=O)N2C1C6C5CC43 (configuration not stated) (tested in a mixture with another compound)
T/C (dose: 12.0 mg/kg/injection, schedule: Q01DX001 (ip), vehicle: Klucel (hydroxypropylcellulose) (HPC)): 89 % of control | T/C (dose: 12.0 mg/kg/injection, schedule: Q01DX009 (ip), vehicle: Klucel (hydroxypropylcellulose) (HPC)): 97 % of control | T/C (dose: 12.5 mg/kg/injection, schedule: Q01DX001 (ip), vehicle: Klucel (hydroxypropylcellulose) (HPC)): 101 % of control | T/C (dose: 12.5 mg/kg/injection, schedule: Q01DX009 (ip), vehicle: saline): 97 % of control | T/C (dose: 25.0 mg/kg/injection, schedule: Q01DX001 (ip), vehicle: Klucel (hydroxypropylcellulose) (HPC)): 95 % of control and 93 % of control | T/C (dose: 25.0 mg/kg/injection, schedule: Q01DX001 (ip), vehicle: saline with Tween-80): 89 % of control | T/C (dose: 25.0 mg/kg/injection, schedule: Q01DX009 (ip), vehicle: Klucel (hydroxypropylcellulose) (HPC)): 96 % of control | T/C (dose: 25.0 mg/kg/injection, schedule: Q01DX009 (ip), vehicle: saline): 97 % of control | T/C (dose: 25.0 mg/kg/injection, schedule: Q04DX003 (ip), vehicle: Klucel (hydroxypropylcellulose) (HPC)): 104 % of control | T/C (dose: 25.0 mg/kg/injection, schedule: Q04DX003 (ip), vehicle: saline with Tween-80): 94 % of control | T/C (dose: 25.0 mg/kg/injection, schedule: Q04DX003 (ip), vehicle: saline): 111 % of control | T/C (dose: 50.0 mg/kg/injection, schedule: Q01DX001 (ip), vehicle: Klucel (hydroxypropylcellulose) (HPC)): 100 % of control and 102 % of control | T/C (dose: 50.0 mg/kg/injection, schedule: Q01DX001 (ip), vehicle: saline with Tween-80): 96 % of control | T/C (dose: 50.0 mg/kg/injection, schedule: Q01DX009 (ip), vehicle: Klucel (hydroxypropylcellulose) (HPC)): 91 % of control | T/C [1]: 106 % of control | T/C (dose: 50.0 mg/kg/injection, schedule: Q04DX003 (ip), vehicle: Klucel (hydroxypropylcellulose) (HPC)): 107 % of control | T/C [2]: 100 % of control | T/C (dose: 50.0 mg/kg/injection, schedule: Q04DX003 (ip), vehicle: saline): 107 % of control | T/C (dose: 75.0 mg/kg/injection, schedule: Q01DX001 (ip), vehicle: other): 95 % of control | T/C (dose: 75.0 mg/kg/injection, schedule: Q01DX001 (ip), vehicle: saline): 98 % of control and 94 % of control and 107 % of control | T/C (dose: 75.0 mg/kg/injection, schedule: Q01DX009 (ip), vehicle: saline): 107 % of control | T/C (dose: 100.0 mg/kg/injection, schedule: Q01DX001 (ip), vehicle: Klucel (hydroxypropylcellulose) (HPC)): 103 % of control | T/C (dose: 100.0 mg/kg/injection, schedule: Q04DX003 (ip), vehicle: Klucel (hydroxypropylcellulose) (HPC)): 95 % of control | T/C [3]: 89 % of control | T/C (dose: 150.0 mg/kg/injection, schedule: Q01DX001 (ip), vehicle: other): 86 % of control | T/C (dose: 150.0 mg/kg/injection, schedule: Q01DX001 (ip), vehicle: saline): 98 % of control | T/C (dose: 200.0 mg/kg/injection, schedule: Q04DX003 (ip), vehicle: Klucel (hydroxypropylcellulose) (HPC)): 90 % of control | T/C (dose: 300.0 mg/kg/injection, schedule: Q01DX001 (ip), vehicle: other): 89 % of control

CCCCn1c(C)cc2c(c1=O)COC(=O)C2CC (configuration not stated)
T/C (dose: 2.5 mg/kg/injection, schedule: Q04DX003 (ip), vehicle: saline): 100 % of control | T/C (dose: 5.0 mg/kg/injection, schedule: Q04DX003 (ip), vehicle: saline): 100 % of control | T/C [4]: 95 % of control | T/C [5]: 97 % of control | T/C [6]: 94 % of control | T/C [7]: 95 % of control

O=C(COc1ccc(Cl)c(Cl)c1)NCCc1cc[n+](Cc2ccc(S(=O)(=O)F)cc2)cc1
T/C [3]: 102 % of control | T/C [8]: 86 % of control

Cc1cccc(CC(O)(CC(O)(c2ccccc2)c2ccccc2)c2ccccc2)c1 (configuration not stated)
T/C (dose: 100.0 mg/kg/injection, schedule: Q04DX003 (ip), vehicle: acetone): 96 % of control | T/C (dose: 200.0 mg/kg/injection, schedule: Q04DX003 (ip), vehicle: acetone): 98 % of control | T/C (dose: 400.0 mg/kg/injection, schedule: Q04DX003 (ip), vehicle: acetone): 97 % of control

CC(C)/C=C/C1(C(C)C)C(=O)NC(=O)NC1=O
T/C (dose: 75.0 mg/kg/injection, schedule: Q01DX001 (ip), vehicle: carboxymethylcellulose (CMC)): 94 % of control | T/C (dose: 150.0 mg/kg/injection, schedule: Q01DX001 (ip), vehicle: carboxymethylcellulose (CMC)): 94 % of control

CN(Cc1cnc2nc(N)nc(N)c2n1)c1ccc(C(=O)NC(CCC(=O)O)C(=O)O)c2ccccc12 (configuration not stated)
T/C (dose: 2.0 mg/kg/injection, schedule: Q01DX009 (ip), vehicle: saline): 159 % of control | T/C (dose: 2.0 mg/kg/injection, schedule: Q04DX003 (ip), vehicle: saline): 120 % of control | T/C (dose: 4.0 mg/kg/injection, schedule: Q01DX009 (ip), vehicle: saline): 152 % of control and 172 % of control | T/C (dose: 4.0 mg/kg/injection, schedule: Q04DX003 (ip), vehicle: saline): 122 % of control | T/C (dose: 8.0 mg/kg/injection, schedule: Q01DX009 (ip), vehicle: saline): 156 % of control and 160 % of control | T/C (dose: 8.0 mg/kg/injection, schedule: Q04DX003 (ip), vehicle: saline): 106 % of control | T/C (dose: 13.0 mg/kg/injection, schedule: Q01DX009 (ip), vehicle: saline): 123 % of control | T/C (dose: 64.0 mg/kg/injection, schedule: Q04DX003 (ip), vehicle: saline): 115 % of control | T/C (dose: 128.0 mg/kg/injection, schedule: Q04DX003 (ip), vehicle: saline): 101 % of control

CCOC(=O)/C=C1/Nc2cc(Cl)c(Cl)cc2NC1=O
T/C [3]: 97 % of control | T/C [8]: 95 % of control | T/C [9]: 89 % of control

COC(=O)C1=NNCC1C(=O)N1Cc2cc3ccccc3nc2C1 (configuration not stated)
T/C [4]: 103 % of control | T/C [5]: 99 % of control | T/C [6]: 103 % of control | T/C [7]: 92 % of control | T/C (dose: 160.0 mg/kg/injection, schedule: Q04DX003 (ip), vehicle: saline): 97 % of control

COc1ccc(N=Cc2cccc(OC)c2O)cc1.COc1ccc(N=Cc2cccc(OC)c2O)cc1.[Co]
T/C [2]: 92 % of control | T/C [8]: 92 % of control | T/C [9]: 95 % of control
